From ChEMBL document CHEMBL1909046, “DrugMatrix in vitro pharmacology data”

What was measured:
[1] = DRUGMATRIX: Calcium Channel Type L, Dihydropyridine radioligand binding (ligand: [3H] Nitrendipine); type: cell membranes, Rattus norvegicus, Wistar, Cerebral cortex, Membrane; settings: Not Active = under 50% inhibition at 10 µM
[2] = target: T1, Neuropeptide Y receptor type 1 (Homo sapiens, UniProt P25929); type: cell membranes, Membrane; settings: sk-n-mc; note: in other assays of this panel Not Active means under 50% inhibition at 10 µM
T1 sequence (P25929 whole entry): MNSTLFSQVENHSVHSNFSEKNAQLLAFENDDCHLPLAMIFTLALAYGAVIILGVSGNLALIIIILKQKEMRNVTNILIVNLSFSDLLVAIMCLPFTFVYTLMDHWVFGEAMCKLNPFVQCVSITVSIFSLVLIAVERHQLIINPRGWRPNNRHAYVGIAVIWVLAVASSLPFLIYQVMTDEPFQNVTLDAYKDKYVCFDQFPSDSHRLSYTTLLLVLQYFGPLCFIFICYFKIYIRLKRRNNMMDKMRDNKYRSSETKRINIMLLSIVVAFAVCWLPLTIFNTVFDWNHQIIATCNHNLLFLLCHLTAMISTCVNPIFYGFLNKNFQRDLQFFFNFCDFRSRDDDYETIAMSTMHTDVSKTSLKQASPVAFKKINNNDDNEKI

[3] = target: C-C chemokine receptor type 2 (Homo sapiens, UniProt P41597); type: cell membranes, CHO-K1, Membrane; settings: cho-k1; note: in other assays of this panel Not Active means under 50% inhibition at 10 µM
[4] = target: Mitogen-activated protein kinase 1 (Homo sapiens, UniProt P28482); assay: DRUGMATRIX: Protein Serine/Threonine Kinase, ERK2 enzyme inhibition (substrate: Myelin Basic Protein); parameters: species or system Escherichia coli; settings: Not Active = under 50% inhibition at 10 µM
Cytochrome P450 2C19 = Cytochrome P450 2C19 (Homo sapiens, UniProt P33261); settings: bti-tn-5b1-4; note: in other assays of this panel Not Active means under 50% inhibition at 10 µM
Vasopressin V1a receptor = Vasopressin V1a receptor (Homo sapiens, UniProt P37288); type: cell membranes, Membrane; settings: hek293; note: in other assays of this panel Not Active means under 50% inhibition at 10 µM
[5] = target: Prostaglandin G/H synthase 1 (Homo sapiens, UniProt P23219); assay: biochemical; type: tissue-based, Platelet; settings: platelet
[6] = DRUGMATRIX: Calcium Channel Type L, Phenylalkylamine radioligand binding (ligand: [3H] (-)-Desmethoxyverapamil (D-888)); type: cell membranes, Rattus norvegicus, Wistar, Brain, Membrane; settings: Not Active = under 50% inhibition at 10 µM
[7] = target: T2, Alpha-1D adrenergic receptor (Homo sapiens, UniProt P25100); type: cell membranes, HEK293, Membrane; settings: hek293; note: in other assays of this panel Not Active means under 50% inhibition at 10 µM
T2 sequence (P25100 whole entry): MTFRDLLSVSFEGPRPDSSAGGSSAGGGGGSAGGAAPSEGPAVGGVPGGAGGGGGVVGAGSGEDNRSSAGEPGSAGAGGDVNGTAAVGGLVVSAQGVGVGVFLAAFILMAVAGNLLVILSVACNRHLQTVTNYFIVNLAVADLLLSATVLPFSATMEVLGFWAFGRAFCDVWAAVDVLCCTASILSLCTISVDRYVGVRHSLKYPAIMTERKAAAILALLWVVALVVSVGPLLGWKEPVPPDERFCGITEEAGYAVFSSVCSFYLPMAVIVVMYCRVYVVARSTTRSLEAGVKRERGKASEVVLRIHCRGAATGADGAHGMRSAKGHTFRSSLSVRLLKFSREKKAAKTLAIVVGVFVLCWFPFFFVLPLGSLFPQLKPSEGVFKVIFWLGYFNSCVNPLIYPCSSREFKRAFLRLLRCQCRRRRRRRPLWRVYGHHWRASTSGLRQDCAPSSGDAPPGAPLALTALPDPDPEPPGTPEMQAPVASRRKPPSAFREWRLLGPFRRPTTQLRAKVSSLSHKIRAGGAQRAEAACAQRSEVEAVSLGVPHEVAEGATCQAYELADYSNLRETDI

Progesterone receptor = target: T3, Progesterone receptor (Bos taurus, UniProt Q690N0); assay: DRUGMATRIX: Progesterone radioligand binding (ligand: [3H] R-5020); type: tissue-based, Uterus; settings: Not Active = under 50% inhibition at 10 µM
T3 sequence (Q690N0 whole entry): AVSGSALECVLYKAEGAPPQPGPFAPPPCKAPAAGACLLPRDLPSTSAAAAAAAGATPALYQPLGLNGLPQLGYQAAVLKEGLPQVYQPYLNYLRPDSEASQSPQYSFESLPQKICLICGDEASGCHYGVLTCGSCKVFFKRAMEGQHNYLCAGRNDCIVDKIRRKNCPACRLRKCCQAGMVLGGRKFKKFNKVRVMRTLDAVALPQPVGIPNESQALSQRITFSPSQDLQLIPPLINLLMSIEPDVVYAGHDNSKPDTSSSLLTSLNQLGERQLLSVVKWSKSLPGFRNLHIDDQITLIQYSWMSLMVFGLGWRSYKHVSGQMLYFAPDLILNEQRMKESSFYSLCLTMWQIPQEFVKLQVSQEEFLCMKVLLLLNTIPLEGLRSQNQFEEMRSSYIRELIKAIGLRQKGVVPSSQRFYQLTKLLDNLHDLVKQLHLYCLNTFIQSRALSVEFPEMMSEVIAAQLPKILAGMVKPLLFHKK

[8] = target: T4, 5-hydroxytryptamine receptor 2C (Homo sapiens, UniProt P28335); assay: DRUGMATRIX: Serotonin (5-Hydroxytryptamine) 5-HT2C radioligand binding (ligand: [3H] Mesulergine); type: cell membranes, CHO-K1, Membrane; settings: cho-k1; Not Active = under 50% inhibition at 10 µM
T4 sequence (P28335 whole entry): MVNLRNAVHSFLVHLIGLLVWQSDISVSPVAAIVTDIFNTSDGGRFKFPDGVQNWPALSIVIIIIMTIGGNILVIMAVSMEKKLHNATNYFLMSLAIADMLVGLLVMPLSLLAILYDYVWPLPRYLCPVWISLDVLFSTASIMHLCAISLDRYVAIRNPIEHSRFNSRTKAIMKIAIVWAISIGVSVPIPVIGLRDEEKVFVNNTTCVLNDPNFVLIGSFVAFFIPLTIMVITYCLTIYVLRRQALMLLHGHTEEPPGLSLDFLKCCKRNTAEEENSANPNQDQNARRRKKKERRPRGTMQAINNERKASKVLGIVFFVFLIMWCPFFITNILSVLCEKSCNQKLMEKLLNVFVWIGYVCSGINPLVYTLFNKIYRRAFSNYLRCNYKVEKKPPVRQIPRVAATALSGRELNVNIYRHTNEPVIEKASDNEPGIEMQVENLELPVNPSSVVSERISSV

[9] = target: Sigma non-opioid intracellular receptor 1 (Homo sapiens, UniProt Q99720); assay: DRUGMATRIX: Sigma1 radioligand binding (ligand: [3H] Haloperidol); type: cell membranes, Jurkat, Membrane; settings: jurkat; Not Active = under 50% inhibition at 10 µM
[10] = DRUGMATRIX: Atrial Natriuretic Factor (ANF) radioligand binding (ligand: [125I] ANF (rat)); type: cell membranes, Cavia porcellus, Dunkin-Hartley, Adrenal gland, Membrane; settings: Not Active = under 50% inhibition at 10 µM

Sequence of Mitogen-activated protein kinase 1 (P28482 whole entry): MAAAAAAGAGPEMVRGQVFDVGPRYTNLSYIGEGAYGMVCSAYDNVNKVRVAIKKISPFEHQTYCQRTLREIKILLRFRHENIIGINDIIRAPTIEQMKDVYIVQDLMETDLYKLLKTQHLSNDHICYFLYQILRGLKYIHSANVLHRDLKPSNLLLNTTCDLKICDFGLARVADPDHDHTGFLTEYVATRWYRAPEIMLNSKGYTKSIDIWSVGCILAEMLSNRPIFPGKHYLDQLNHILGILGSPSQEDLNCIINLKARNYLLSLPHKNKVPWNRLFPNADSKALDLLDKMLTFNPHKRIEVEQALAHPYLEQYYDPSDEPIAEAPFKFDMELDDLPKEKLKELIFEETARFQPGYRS
Sequence of Vasopressin V1a receptor (P37288 whole entry): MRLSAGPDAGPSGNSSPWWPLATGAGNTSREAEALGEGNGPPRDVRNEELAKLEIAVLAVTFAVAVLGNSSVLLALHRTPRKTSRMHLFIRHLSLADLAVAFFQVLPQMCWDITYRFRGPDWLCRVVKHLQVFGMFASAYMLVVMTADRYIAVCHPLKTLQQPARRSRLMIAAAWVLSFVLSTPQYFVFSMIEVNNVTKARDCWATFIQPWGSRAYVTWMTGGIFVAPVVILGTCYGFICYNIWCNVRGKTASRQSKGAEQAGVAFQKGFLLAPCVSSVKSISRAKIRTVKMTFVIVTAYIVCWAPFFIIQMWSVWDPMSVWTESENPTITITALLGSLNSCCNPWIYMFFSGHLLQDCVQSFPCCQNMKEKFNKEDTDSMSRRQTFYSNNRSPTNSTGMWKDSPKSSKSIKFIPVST
Sequence of C-C chemokine receptor type 2 (P41597 whole entry): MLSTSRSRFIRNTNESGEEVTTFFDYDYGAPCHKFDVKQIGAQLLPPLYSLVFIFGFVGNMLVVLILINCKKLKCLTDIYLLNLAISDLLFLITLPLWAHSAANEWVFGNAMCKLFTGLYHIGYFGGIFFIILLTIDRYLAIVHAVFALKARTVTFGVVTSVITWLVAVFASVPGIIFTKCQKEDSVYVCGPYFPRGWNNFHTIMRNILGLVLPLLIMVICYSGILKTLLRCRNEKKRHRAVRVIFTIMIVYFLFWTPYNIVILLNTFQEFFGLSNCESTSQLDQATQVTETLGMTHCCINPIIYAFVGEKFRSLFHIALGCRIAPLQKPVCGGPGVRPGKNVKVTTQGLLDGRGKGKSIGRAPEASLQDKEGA
Sequence of Cytochrome P450 2C19 (P33261 whole entry): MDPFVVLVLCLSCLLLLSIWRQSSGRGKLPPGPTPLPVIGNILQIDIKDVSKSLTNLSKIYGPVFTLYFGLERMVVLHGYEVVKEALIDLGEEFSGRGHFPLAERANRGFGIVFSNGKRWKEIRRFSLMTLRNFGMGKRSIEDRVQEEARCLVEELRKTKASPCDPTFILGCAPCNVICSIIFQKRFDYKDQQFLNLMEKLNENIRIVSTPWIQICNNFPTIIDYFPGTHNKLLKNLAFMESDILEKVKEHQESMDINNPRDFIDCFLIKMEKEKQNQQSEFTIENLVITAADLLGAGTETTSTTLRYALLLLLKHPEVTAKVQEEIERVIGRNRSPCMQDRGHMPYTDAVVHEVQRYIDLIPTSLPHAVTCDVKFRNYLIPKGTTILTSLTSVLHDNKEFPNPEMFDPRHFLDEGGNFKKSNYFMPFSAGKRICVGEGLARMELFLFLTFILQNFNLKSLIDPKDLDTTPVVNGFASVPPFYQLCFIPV
Sequence of Prostaglandin G/H synthase 1 (P23219 whole entry): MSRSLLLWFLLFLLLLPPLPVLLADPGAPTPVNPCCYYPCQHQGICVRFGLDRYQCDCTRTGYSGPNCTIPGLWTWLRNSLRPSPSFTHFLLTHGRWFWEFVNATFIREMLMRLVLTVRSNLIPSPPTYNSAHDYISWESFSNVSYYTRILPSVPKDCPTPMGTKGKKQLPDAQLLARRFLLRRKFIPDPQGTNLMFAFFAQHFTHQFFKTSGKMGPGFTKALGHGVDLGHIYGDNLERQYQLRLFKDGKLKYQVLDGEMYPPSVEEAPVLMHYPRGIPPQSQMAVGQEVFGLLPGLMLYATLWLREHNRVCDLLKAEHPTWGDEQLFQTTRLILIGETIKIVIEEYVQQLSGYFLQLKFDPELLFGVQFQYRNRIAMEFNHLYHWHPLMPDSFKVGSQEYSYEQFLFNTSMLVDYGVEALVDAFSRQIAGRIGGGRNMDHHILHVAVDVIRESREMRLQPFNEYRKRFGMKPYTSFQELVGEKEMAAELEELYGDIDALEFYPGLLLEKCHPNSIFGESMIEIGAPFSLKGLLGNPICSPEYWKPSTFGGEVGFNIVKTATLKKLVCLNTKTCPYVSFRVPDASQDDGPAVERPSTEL
Sequence of Sigma non-opioid intracellular receptor 1 (Q99720 whole entry): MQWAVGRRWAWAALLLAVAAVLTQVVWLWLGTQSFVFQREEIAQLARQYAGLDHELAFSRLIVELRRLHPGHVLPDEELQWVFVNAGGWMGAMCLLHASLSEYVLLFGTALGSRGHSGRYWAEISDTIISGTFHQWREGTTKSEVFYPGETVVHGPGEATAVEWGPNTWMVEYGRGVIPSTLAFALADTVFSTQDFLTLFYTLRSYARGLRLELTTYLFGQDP

CARBOPLATIN
Not Active: IC50 [1] | Ki [1] | IC50 [2] | Ki [2] | IC50 [3] | Ki [3] | IC50 [4] | Ki [4] | IC50 (Cytochrome P450 2C19) | Ki (Cytochrome P450 2C19) | IC50 (Vasopressin V1a receptor) | Ki (Vasopressin V1a receptor) | IC50 [5] | Ki [5] | IC50 [6] | Ki [6] | IC50 [7] | Ki [7] | IC50 (Progesterone receptor) | Ki (Progesterone receptor) | IC50 [8] | Ki [8] | IC50 [9] | Ki [9] | IC50 [10] | Ki [10]
